In publication PMC9785441, “A Broad Spectrum Antiparasitic Activity of Organotin (IV) Derivatives and Its Untargeted Proteomic Profiling Using Leishmania donovani” (Pathogens, 2022):
Where two headings read alike, the source gives them in different places.

Key:
[1] = tested on: T. cruzi (infecting C2C12); assay: T. cruzi intracellular amastigote assay in C2C12 cells (high content imaging); type: cell-based, Trypanosoma cruzi; details: for EC50: intracellular amastigotes, 72 h, read-out: EC50 T. cruzi (infecting C2C12)
Method: (§1) Mouse C2C12 myoblasts (ATCC CRL-1772) were cultivated in RPMI 1640 medium supplemented with 5% FBS and kept at 37 °C and 5% CO2. T. cruzi CAI-72 trypomastigotes were obtained from the supernatant of C2C12 cells infected four to seven days previously. For the assay, 500 C2C12 cells were mixed with 7500 T. cruzi parasites and seeded into 384-well plates at a 50 µL final volume. Test compounds and reference drugs (Benznidazole and K11777) were pre-spotted into the 384 well black bottom plates prior to the addition of cells and parasites with final assay concentration of 20 µM to 0.02 µM. The plates were incubated at 37 °C^, 5% CO2 for 72 h. Cultures were then fixed with 4% formaldehyde and 0.5 µg/mL DAPI (diamidino-2-phenylindole) was added for staining nucleic acids. Plates were kept protected from light for 1 h and then imaged in an ImageXpress Micro XLS automated high content imager (Molecular Devices, San Jose, CA, USA). Imaging and data analysis were performed as described for L. donovani amastigotes on biological triplicates.

[2] = tested on: N. fowleri (KUL strain) trophozoites; assay: N. fowleri trophozoite viability assay (CellTiter-Glo); type: cell-based, Naegleria fowleri; details: 48 h
Method: N. fowleri (KUL strain) was cultured in Nelson’s medium supplemented with 10% FBS and kept at 37 °C. For all experiments, trophozoites were harvested during the logarithmic phase of growth. Test compounds were serially diluted and transferred to a white solid bottomed 96-well tissue culture plate (E&K Scientific, Swedesboro, NJ, USA) followed by addition of 10,000 N. fowleri trophozoites in Nelson’s medium in a final volume of 100 µL and a final concentration of compounds ranging from 50 to 0.39 µM. Amphotericin B was used as positive control and assay plates were incubated for 48 h at 37 °C. Parasite viability was measured as described for E. histolytica and G. lamblia. EC50 values were obtained using the GraphPad Prism 9 Software.

[3] = tested on: L. donovani promastigotes; assay: L. donovani promastigote viability assay (resazurin); type: cell-based, Leishmania donovani; details: for EC50: promastigotes, 48 h, read-out: EC50 L. donovani (pro)
Method: Promastigotes of L. donovani from late log phase culture were diluted to 2.0 × 10^6/mL in M-199 containing 10% FBS, 25 mM HEPES (Gibco 15630-080), 100 µM adenine, 12 mM NaHCO3, 10 µM folic acid, 1% penicillin/streptomycin (Gibco 15140-122) as described previously. Compounds and controls were transferred from compound plates to 384 well assay plates with the use of an acoustic transfer system (ATS, EDC Biosystems, Fremont, CA, USA). Promastigotes were incubated with compounds at 29 °C for 48 h. To measure parasite viability, resazurin sodium salt (7-hydroxy-3H-phenoxazin3-one 10-oxide) was dissolved in PBS and added to each well at a volume of 5 µL (final concentration of 44 µM). After incubating for 4 h at room temperature, fluorescence (ex 571 nm/em 584 nm) was recorded with an Envision (Perkin Elmer, Waltham, MA, USA) microplate fluorescence/luminescence reader. […] For positive and negative control amphotericin B and 0.5% DMSO was used, respectively. Dose response and EC50 analyses were obtained using GraphPad Prism 9 Software (Graph Pad Software Inc., San Diego, CA, USA).

[4] = tested on: G. lamblia (WB strain) trophozoites; assay: G. lamblia trophozoite viability assay (CellTiter-Glo); type: cell-based, Giardia lamblia; details: 48 h
Method: Trophozoites of G. lamblia (WB strain) were maintained in vitro as described in TYI-S-33 medium supplemented with penicillin (100 U/mL) and streptomycin (100 µg/mL). Cells were harvested during the logarithmic phase of the growth for antiparasitic assessment. Test compounds were serially diluted and transferred to a white solid bottomed 96-well tissue culture plate (E&K Scientific, Swedesboro, NJ, USA) followed by addition of 5000 G. lamblia trophozoites for a final volume of 100 µL of TYI-S-33 medium and a final concentration of compounds ranging from 50.0 to 0.39 µM. Metronidazole was used as a positive control and assay plates were incubated for 48 h at 37 °C in the GasPak EZ Anaerobic Gas Generating Pouch System (VWR). Parasite viability was measured in triplicate using the CellTiter-Glo luminescence kit in an Envision plate reader. EC50 values were obtained using the GraphPad Prism 9 Software.

[5] = tested on: T. b. brucei Lister 427 bloodstream forms; assay: T. brucei bloodstream form viability assay (SYBR Green); type: cell-based, Trypanosoma brucei; details: for EC50: bloodstream forms, 72 h
Method: Bloodstream forms of T. b. brucei Lister 427 were cultured in complete HMI-9 medium in T25 suspension culture flasks (Thermo Scientific, Cat. 12-566-84) and maintained at 37 °C and 5% CO2. Trypanosomes were kept in log-phase growth and passaged every 48 h. […] Pentamidine were used as a positive control for T. brucei assay. Compounds were diluted with fresh HMI-9 medium (99 µL/well). Parasites in log-phase were suspended at 2 × 10^5 parasites/mL in HMI-9 medium and then added to each well (100 µL) to give 2 × 10^4 trypanosomes/well. Assay plates were incubated at 37 °C and 5% CO2 for 72 h. Parasite lysate was obtained by addition of 50 µL/well of lysis solution (0.012% saponin, 0.12% Triton X-100, 7.5 mM ETDA, 30 mM Tris, pH 7.5) containing 0.3 µL/mL SYBR Green I (10,000× in DMSO; Invitrogen, Carlsbad, CA, USA). Assay plates were incubated in the dark for 1 h at room temperature. Fluorescence was measured at 485 nm excitation and 535 nm emission wavelengths using an EnVision multilabel plate reader (PerkinElmer, Waltham, MA, USA). In each assay plate, parasite viability was normalized relative to positive (pentamidine) and negative (0.5% DMSO) controls in each assay plate. Assays were performed in biological and technical duplicates, and dose–response and EC50 data were generated with GraphPad Prism 9 using a sigmoidal four parameter logistic curve.

[6] = tested on: C2C12 cells; assay: Cytotoxicity to C2C12 host cells; type: cell-based; details: mouse myoblast host cells, 72 h
Method: as §1

[7] = tested on: B10R cells; assay: Cytotoxicity to B10R host cells (nuclei count in the amastigote assay); type: cell-based; details: mouse monocyte host cells, 72 h
Method: For the intracellular amastigote stage assay, L. donovani was incubated at a density of 1 × 10^6 parasites/mL for six days at 29 °C before infection to enrich the proportion of metacyclic promastigotes. B10R monocyte cell lines were cultured in RPMI supplemented with 10% FBS and 1%penicillin/streptomycin at 37 °C in 5% CO2. After 72 h, cells were counted with a hemocytometer and mixed with the six-day-old parasites. […] Plates were incubated at 37 °C and 5% CO2 for 72 h. Cultures were then fixed with 4% formaldehyde solution for 30 min and stained with 0.5 µg/mL DAPI (diamidino-2-phenylindole). Plates were then imaged using an ImageXpress Micro XLS automated high content imager (Molecular Devices, San Jose, CA, USA) using a 10× air objective. A custom image analysis module generated in ImageXpress was used to count the nuclei of host and parasite cells. EC50 values were obtained using the GraphPad Prism 9 Software with biological triplicates.

| EC50 ([1]; Trypanosoma cruzi, C2C12, 72 h) | EC50 ([2]; Naegleria fowleri) | EC50 ([4]; Giardia duodenalis) | Compound | EC50 [3] | EC50 ([5]; Trypanosoma brucei) | CC50 [6] | EC50 [1] | EC50 [2] | EC50 [4] | EC50 [5] | CC50 [7] | IC50 ([3]; Figure S1 dose response curves, RFU, read-out: IC50 against the promastigotes of L. donovani) | T. cruzi intracellular parasites eliminated ([1]; 5 µM) | T. brucei eliminated ([5]; 5 µM) |
| --- | --- | --- | --- | --- | --- | --- | --- | --- | --- | --- | --- | --- | --- | --- |
| 3210 nM | > 10000 nM | > 10000 nM | COc1ccc(NC(=O)CCC(=O)O)cc1 [MS26, 4-(4-methoxyphenylamino)-4 oxobutanoic acid] | > 20000 nM | > 4000 nM | > 20000 nM |  |  |  |  |  |  |  |  |
|  |  |  | CCC[CH2][Sn]([CH2]CCC)([O]C(=O)CCC(=O)Nc1ccc(OC)cc1)[O]C(=O)CCC(=O)Nc1ccc(OC)cc1 [MS26Bu2] | 760 nM |  | 140 nM | 530 nM | > 10000 nM | > 10000 nM | 290 nM | 1060 nM |  |  |  |
|  |  |  | CCC[CH2][Sn]([CH2]CCC)([CH2]CCC)[O]C(=O)CCC(=O)Nc1ccc(OC)cc1 [MS26Bu3] | 220 nM |  | 220 nM | 110 nM | 1500 nM | 1030 nM | 50 nM | 170 nM |  |  |  |
|  |  |  | CCC[CH2][Sn]([Cl])([Cl])[O]C(=O)CCC(=O)Nc1ccc(OC)cc1 [MS26BuSnCl2] | > 20000 nM |  | 18100 nM | > 20000 nM | > 10000 nM | > 10000 nM | > 4000 nM | 620 nM |  |  |  |
|  |  |  | COc1ccc(NC(=O)CCC(=O)[O][Sn]([CH]2CCCCC2)([CH]2CCCCC2)[CH]2CCCCC2)cc1 [MS26Cy3] |  |  |  | 300 nM | 7500 nM | > 10000 nM | 80 nM | 110 nM | 600 nM |  |  |
|  |  |  | C[CH2][Sn]([CH2]C)([CH2]C)[O]C(=O)CCC(=O)Nc1ccc(OC)cc1 [MS26Et3] | 210 nM |  | 2790 nM | 240 nM | 1400 nM | 8000 nM | 90 nM |  |  | > 95% | > 99% |
|  |  |  | COc1ccc(NC(=O)CCC(=O)[O][Sn]([CH3])([CH3])[CH3])cc1 [MS26Me3] | > 20000 nM |  | 9410 nM | > 20000 nM | > 10000 nM | > 10000 nM | > 4000 nM | 4870 nM |  |  |  |
|  |  |  | COc1ccc(NC(=O)CCC(=O)[O-])cc1.[Na+] [MS26Na, sodium 4-(4-methoxyphenylamino)-4 oxobutanoate] | 170 nM |  | 1610 nM | 4270 nM | > 10000 nM | > 10000 nM | > 4000 nM | 4550 nM |  |  |  |
|  |  |  | COc1ccc(NC(=O)CCC(=O)[O][Sn]([c]2ccccc2)([c]2ccccc2)[c]2ccccc2)cc1 [MS26Ph3] | 390 nM |  | 410 nM | > 20000 nM | 3200 nM | 5300 nM | 90 nM | 290 nM |  |  |  |
|  |  |  | C=[CH][Sn]([CH]=C)([O]C(=O)CCC(=O)Nc1ccc(OC)cc1)[O]C(=O)CCC(=O)Nc1ccc(OC)cc1 [MS26vin2] | > 20000 nM |  | > 20000 nM | > 20000 nM | > 10000 nM | > 10000 nM | > 4000 nM | > 20000 nM |  |  |  |
